Results reported in patent US9499493B2, “2,4-pyrimidinediamine compounds and their uses” (Rigel Pharmaceuticals, Inc., priority 2002, dated 2016).
Counter-ions that a name gives are not always drawn.

Key:
[1] = test system: cultured human mast cells (CHMC); test: CHMC low cell density IgE activation: tryptase assay; type: cell-based; conditions: anti-IgE
How it was run: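 Supernatant tryptase activity, assayed with substrate for 30 min at room temperature, served as the degranulation measure. Mast cells (1000-1500 per well depending on donor) sat 1 hr at 37° C in MT before a 30 min anti-IgE challenge at 37° C.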

[2] = test system: cultured human mast cells (CHMC); test: CHMC low cell density ionomycin activation: tryptase assay; type: cell-based

Row | Compound | IC50 [1] [nM] | IC50 [2] [nM] | IC50 ([1]; Dihydrochloride Salt) [nM]
1 | CCOC(=O)CCn1ncc2ccc(Nc3ncc(F)c(Nc4ccc5c(c4)OCCO5)n3)cc21 [R935286, N2-[1-(2-ethoxycarbonylethyl)indazoline-6-yl]-N4-(3,4-ethylenedioxyphenyl)-5-fluoro-2,4-pyrimidinediamine] | 1160 | > 10000 | –
2 | N2-[3-(N-2-Aminoethylamino)carbonylmethylene aminophenyl]-5-fluoro-N4-[3-(2-hydroxyethylenoxy)phenyl]-2,4-pyrimidinediamine [R950232] | 10000 | > 10000 | –
3 | O=C(O)COc1cccc(Nc2ncc(F)c(Nc3cccc(O)c3)n2)c1 [R945126, N2-(3-Carboxymethyleneoxyphenyl)-5-fluoro-N4-(3-hydroxyphenyl)-2,4-pyrimidinediamine] | > 10000 | > 10000 | –
4 | N#CCOc1ccc(Nc2nc(Nc3ccc4c(c3)OCCO4)ncc2F)cc1 [R945172, N4-(4-Cyanomethyleneoxyphenyl)-N2-(3,4-ethylenedioxyphenyl)-5-fluoro-2,4-pyrimidinediamine] | 1180 | > 10000 | –
5 | Oc1cccc(Nc2nc(Nc3ccc4oc(CN5CCNCC5)cc4c3)ncc2F)c1 [R926769, 5-Fluoro-N4-(3-hydroxyphenyl)-N2-[2-(N-piperazinomethylene)benzofuran-5-yl]-2,4-pyrimidinediamine Dihydrochloride Salt] | – | > 10000 | 1070
6 | CC(C)Oc1cccc(Nc2nc(Nc3ccc4oc(C(=O)N5CCOCC5)cc4c3)ncc2F)c1 [R926489, 5-Fluoro-N4-(3-isopropoxyphenyl)-N2-[2-(N-morpholino)carbonylbenzofuran-5-yl]-2,4-pyrimidinediamine] | 1410 | > 10000 | –
7 | CCOC(=O)CSc1ccc(Nc2ncc(F)c(Nc3ccc4c(c3)OCCO4)n2)cn1 [R926727, N2-[2-(Ethoxycarbonylmethylenethio)pyridin-5-yl]-N4-(3,4-ethylenedioxyphenyl)-5-fluoro-2,4-pyrimidinediamine] | 387 | > 10000 | –
8 | Cc1noc(COc2ccc(Nc3ncc(F)c(Nc4ccc5c(c4)OCCO5)n3)cc2)n1 [R935143, N4-(3,4-Ethylenedioxyphenyl)-5-fluoro-N2-[4-(3-methyl-1,2,4-oxadiazol-5-yl)methyleneoxyphenyl]-2,4-pyrimidinediamine] | 573 | > 10000 | –
9 | O=C(CNc1cccc(Nc2ncc(F)c(Nc3cccc(O)c3)n2)c1)NCCN1CCOCC1 [R950226] | 1370 | > 10000 | –
10 | COC(=O)Cn1ncc2ccc(Nc3nc(Nc4ccc5c(c4)OCCO5)ncc3F)cc21 [R935219, N2-(3,4-Ethylenedioxyphenyl)-5-fluoro-N4-[1-(methoxycarbonyl)methyl-indazoline-6-yl]-2,4-pyrimidinediamine] | 5410 | > 10000 | –
11 | CN1CCN(C(=O)CNc2cccc(Nc3ncc(F)c(Nc4cccc(NCCO)c4)n3)c2)CC1 [R950240, N4-[3-(2-Hydroxyethyleamino)phenyl]-N2-[3-(N—(N-methyl)-piperazino)carbonylmethyleneaminophenyl]-5-fluoro-2,4-pyrimidinediamine] | 1770 | > 10000 | –
12 | Cn1ncc2cc(Nc3ncc(F)c(Nc4ccc(Cl)nc4)n3)ccc21 [R935375, N4-(6-Chloro-3-pyridyl)-5-fluoro-N2-(1-methylindazoline-5-yl)-2,4-pyrimidinediamine] | 10000 | > 10000 | –
13 | CCOC(=O)COc1cccc(Nc2ncc(F)c(Nc3cccc(C(C)(C)C)c3)n2)c1 [R940270, N4-(3-tert-Butylphenyl)-N2-(3-ethoxycarbonylmethyleneoxyphenyl)-5-fluoro-2,4-pyrimidinediamine] | 2140 | 8740 | –
14 | CC(C)NC(=O)COc1cccc(Nc2ncc(F)c(Nc3ccc4c(c3)NCCO4)n2)c1 [R909254, N4-(1,4-Benzoxazin-6-yl)-N2-[3-(N-isopropylamino)carbonylmethyleneoxyphenyl]-5-fluoro-2,4-pyrimidinediamine] | 136 | > 10000 | –
15 | CNC(=O)COc1cccc(Nc2ncc(F)c(Nc3ccc4[nH]ncc4c3)n2)c1 [R935279, 5-Fluoro-N4-(indazoline-5-yl)-N2-[3-(N-methylaminocarbonylmethyleneoxy)phenyl]-2,4-pyrimidinediamine] | 889 | > 10000 | –
16 | C=CCNC(=O)Nc1c(Nc2ccc(OCC(=O)OCC)cc2)nc(Nc2ccc(OCC(=O)OCC)cc2)nc1C(=O)OCC [R926585] | > 10000 | > 10000 | –
17 | CON=C(N)COc1ccc(Nc2ncc(F)c(Nc3cccc(O)c3)n2)cc1 [R945167, 5-Fluoro-N4-(3-hydroxyphenyl)-N2-[4-(2-methoxyimino(amino)ethyleneoxy)phenyl]-2,4-pyrimidinediamine] | 761 | > 10000 | –
18 | COc1cccc(Nc2nc(Nc3cccc(OCC(=O)NCC(O)CO)c3)ncc2F)c1 (stereo not shown) [R926739, N2-[3-(N-2,3-Dihydroxypropylamino)carbonylmethyleneoxyphenyl]-5-fluoro-N4-(3-methoxyphenyl)-2,4-pyrimidinediamine] | 508 | > 10000 | –

Row | Compound | IC50 [1] [nM] | IC50 [2] [nM] | IC50 ([1]; Dihydrochloride Salt) [nM]
19 | CC(=NO)c1cccc(Nc2ncc(F)c(Nc3cccc(C(C)=NO)c3)n2)c1 [R950379, N2,N4-Bis(3-methylcarbonyloximephenyl)-5-fluoro-2,4-pyrimidinediamine] | 545 | > 10000 | –
20 | CCOC(=O)c1cnc(Nc2cccc(OCC(=O)NC)c2)nc1Nc1ccc2c(c1)OCCO2 [R926800, 5-Ethoxycarbonyl-N4-(3,4-ethylenedioxyphenyl)-N2-[3-(N-methylamino)carbonylmethyleneoxyphenyl]-2,4-pyrimidinediamine] | 4580 | > 10000 | –
21 | CNCCNC(=O)CNc1cccc(Nc2ncc(F)c(Nc3ccc4c(c3)OCCO4)n2)c1 [R950196, N4-(3,4-Ethylenedioxyphenyl)-5-fluoro-N2-[3-(N-methylamino)ethyleneaminocarbonylmethyleneaminophenyl]-2,4-pyrimidinediamine] | 2200 | > 10000 | –
22 | CNC(=O)COc1cccc(Nc2ncc(F)c(Nc3ccc4c(c3)NC(C)(C)CO4)n2)c1 [R909309, N4-(3,3-Dimethyl-1,4-benzoxazin-6-yl)-5-fluoro-N2-[3-(N-methylaminocarbonylmethyleneoxy)phenyl]-2,4-pyrimidinediamine] | 83 | > 10000 | –
23 | COC(=O)c1cc(Nc2nc(Nc3ccc4c(c3)OCCO4)ncc2F)cn1C [R935166, N2-(3,4-Ethylenedioxyphenyl)-5-fluoro-N4-[(N-methyl-2-methoxycarbonyl)pyrrol-4-yl]-2,4-pyrimidinediamine] | 568 | > 10000 | –
24 | COC(=O)COc1ccc(Nc2ncc(F)c(Nc3ccc4c(c3)OCCCO4)n2)cc1 [R935182, 5-Fluoro-N2-[4-(methoxycarbonylmethyleneoxy)phenyl]-N4-(3,4-propylenedioxyphenyl)-2,4-pyrimidinediamine] | 124 | 2470 | –
25 | CNC(=O)COc1cccc(Nc2ncc(F)c(Nc3ccc(F)c(C)c3)n2)c1 [R926923, 5-Fluoro-N4-(4-fluoro-3-methylphenyl)-N2-[3-[(N-methylamino)carbonylmethyleneoxy]phenyl]-2,4-pyrimidinediamine] | 346 | > 10000 | –
26 | COC(=O)COc1cc(Nc2ncc(F)c(Nc3cccc(O)c3)n2)cc(OCC(=O)OC)c1 [R926926, N2-[3,5-Bis(methoxycarbonylmethyleneoxy)phenyl]-5-fluoro-N4-(3-hydroxyphenyl)-2,4-pyrimidinediamine] | 401 | > 10000 | –
27 | CCCNC(=O)COc1ccc(Nc2ncc(C#N)c(Nc3ccc(OCC(=O)NCCC)cc3)n2)cc1 [R925853, N2,N4-Bis[4-(N-n-propylamino)carbonylmethyleneoxyphenyl]-5-cyano-2,4-pyrimidinediamine] | > 10000 | > 10000 | –
28 | O=C(COc1cccc(Nc2ncc(F)c(Nc3ccc4c(c3)OCCO4)n2)c1)N(CCO)CCO [R926781, N2-[3-[N,N-Bis-(2-hydroxyethylamino)]carbonylmethyleneoxyphenyl]-N4-(3,4-ethylenedioxyphenyl)-5-fluoro-2,4-pyrimidinediamine] | 573 | > 10000 | –
29 | COC(=O)c1cc2cc(Nc3ncc(F)c(Nc4ccc5c(c4)NC(=O)C(F)(F)O5)n3)ccc2o1 [R940353, N4-[(2,2-Difluoro-4H-benzo[1,4]oxazin-3-one)-6-yl]-5-fluoro-N2-(2-methoxycarbonylbenzofur-5-yl)-2,4-pyrimidinediamine] | 91 | > 10000 | –
30 | Cc1ccc(Nc2ncc(F)c(Nc3ccc(C)c(O)c3)n2)cc1O [R926341, N2,N4-Bis(-3-hydroxy-4-methylphenyl)-5-fluoro-2,4-pyrimidinediaminediamine] | 875 | > 10000 | –
31 | Fc1cnc(Nc2cccc(C(F)(F)F)c2)nc1Nc1ccc2c(c1)OCCO2 [R926805] | 764 | > 10000 | –
32 | N#Cc1cnc(Nc2ccc(OCC(=O)N3CCCCC3)cc2)nc1Nc1ccc(OCC(=O)N2CCCCC2)cc1 [R925855, N2,N4-Bis[4-(N-piperidino)carbonylmethyleneoxyphenyl]-5-cyano-2,4-pyrimidinediamine] | 4200 | > 10000 | –
33 | CNC(=O)COc1cccc(Nc2ncc(F)c(Nc3ccc(C(C)(C)C)cc3)n2)c1 [R926714, N4-(4-tert-Butylphenyl)-5-fluoro-N2-[3-(N-methylamino)carbonylmethyleneoxyphenyl]-2,4-pyrimidinediamine] | 428 | > 10000 | –
34 | CNC(=O)COc1cccc(Nc2ncc(F)c(Nc3ccc(C)c(OC)c3)n2)c1 [R926902, 5-Fluoro-N2-[3-[(N-methylamino)carbonylmethyleneoxy]phenyl]-N4-(3-methoxy-4-methylphenyl)-2,4-pyrimidinediamine] | 1370 | 4590 | –
35 | CN(C)CCCNC(=O)CNc1cccc(Nc2ncc(F)c(Nc3cccc(NCCO)c3)n2)c1 [R950237, N2-[3-(3-N,N-Dimethylaminopropyl)aminocarbonylmethyleneaminophenyl]-5-fluoro-N4-[3-(2-hydroxyethylamino)phenyl]-2,4-pyrimidinediamine] | > 10000 | > 10000 | –
